According to ChEMBL document CHEMBL3885881, “DrugMatrix”:

Organism: Rattus norvegicus
Assay: DrugMatrix - Regimen: Daily Repeat
Assay type: toxicity, organism-based, Sprague-Dawley
Parameters: regimen Daily Repeat, gender Male, age 6-8 weeks
Conditions: in vivo, po, route oral GAVAGE, vehicle .5 % CMC; for ABSOLUTE BASOPHIL / ABSOLUTE EOSINOPHIL / ABSOLUTE LYMPHOCYTE / ABSOLUTE MONOCYTE / ABSOLUTE SEGMENTED NEUTROPHIL / BASOPHIL / EOSINOPHIL / ERYTHROCYTE COUNT / HEMATOCRIT / HEMOGLOBIN / LEUKOCYTE COUNT / LYMPHOCYTE / MEAN CORPUSCULAR HEMOGLOBIN / MEAN CORPUSCULAR HEMOGLOBIN CONCENTRATION / MEAN CORPUSCULAR VOLUME / MONOCYTE / NEUTROPHIL / NUCLEATED RED BLOOD CELLS / PLATELET COUNT: tissue Blood; for ALANINE AMINOTRANSFERASE / ALBUMIN / ALKALINE PHOSPHATASE / ASPARTATE AMINOTRANSFERASE / BLOOD UREA NITROGEN / CARBON DIOXIDE / CHLORIDE / CHOLESTEROL / CREATINE PHOSPHOKINASE / CREATININE / GLUCOSE / LACTATE DEHYDROGENASE / LIPASE / PHOSPHORUS / POTASSIUM / SODIUM / TOTAL BILIRUBIN / TOTAL PROTEIN / URIC ACID: tissue Plasma
[1] = 15 mg/kg, 120 h, dose level Low, time 5 day
[2] = 1500 mg/kg, 72 h, dose level High, time 3 day
[3] = 1500 mg/kg, 120 h, dose level High, time 5 day

SMILES: COC(=O)c1ccc(O)cc1 [METHYLPARABEN]
- ABSOLUTE BASOPHIL [1]: 0 CELLS/uL
- ABSOLUTE EOSINOPHIL [1]: 60.67 CELLS/uL
- ABSOLUTE LYMPHOCYTE [1]: 12673.33 CELLS/uL
- ABSOLUTE MONOCYTE [1]: 0 CELLS/uL
- ABSOLUTE SEGMENTED NEUTROPHIL [1]: 1232.67 CELLS/uL
- BASOPHIL [1]: 0%
- EOSINOPHIL [1]: 0.33%
- ERYTHROCYTE COUNT [1]: 5.42 x10E6/uL
- HEMATOCRIT [1]: 34.93%
- HEMOGLOBIN [1]: 13.97 G/DL
- LEUKOCYTE COUNT [1]: 13.97 x10E3/uL
- LYMPHOCYTE [1]: 91%
- MEAN CORPUSCULAR HEMOGLOBIN [1]: 25.8 pg
- MEAN CORPUSCULAR HEMOGLOBIN CONCENTRATION [1]: 40 G/DL
- MEAN CORPUSCULAR VOLUME [1]: 64.4 fL
- MONOCYTE [1]: 0%
- NEUTROPHIL [1]: 8.67%
- NUCLEATED RED BLOOD CELLS [1]: 0 /100WBC
- PLATELET COUNT [1]: 1233.67 x10E3/uL
- ALANINE AMINOTRANSFERASE [1]: 58.67 u/L
- ALBUMIN [1]: 3.9 G/DL
- ALKALINE PHOSPHATASE [1]: 392.67 u/L
- ASPARTATE AMINOTRANSFERASE [1]: 87.33 u/L
- BLOOD UREA NITROGEN [1]: 17.67 mg/dL
- CARBON DIOXIDE [1]: 26 mmol/L
- CHLORIDE [1]: 101.67 MEQ/L
- CHOLESTEROL [1]: 65.33 mg/dL
- CREATINE PHOSPHOKINASE [1]: 524 u/L
- CREATININE [1]: 0.12 mg/dL
- GLUCOSE [1]: 151 mg/dL
- LACTATE DEHYDROGENASE [1]: 137.67 u/L
- LIPASE [1]: 9.33 u/L
- PHOSPHORUS [1]: 14.13 mg/dL
- POTASSIUM [1]: 6.95 MEQ/L
- SODIUM [1]: 142.07 MEQ/L
- TOTAL BILIRUBIN [1]: 0.23 mg/dL
- TOTAL PROTEIN [1]: 5.7 G/DL
- URIC ACID [1]: 1.93 mg/dL
- ABSOLUTE BASOPHIL [2]: 0 CELLS/uL
- ABSOLUTE EOSINOPHIL [2]: 0 CELLS/uL
- ABSOLUTE LYMPHOCYTE [2]: 15298 CELLS/uL
- ABSOLUTE MONOCYTE [2]: 225.33 CELLS/uL
- ABSOLUTE SEGMENTED NEUTROPHIL [2]: 3076.67 CELLS/uL
- BASOPHIL [2]: 0%
- EOSINOPHIL [2]: 0%
- ERYTHROCYTE COUNT [2]: 5.36 x10E6/uL
- HEMATOCRIT [2]: 33.07%
- HEMOGLOBIN [2]: 13.37 G/DL
- LEUKOCYTE COUNT [2]: 18.6 x10E3/uL
- LYMPHOCYTE [2]: 82.67%
- MEAN CORPUSCULAR HEMOGLOBIN [2]: 25.03 pg
- MEAN CORPUSCULAR HEMOGLOBIN CONCENTRATION [2]: 40.47 G/DL
- MEAN CORPUSCULAR VOLUME [2]: 61.8 fL
- MONOCYTE [2]: 1.33%
- NEUTROPHIL [2]: 16%
- NUCLEATED RED BLOOD CELLS [2]: 0 /100WBC
- PLATELET COUNT [2]: 1154.33 x10E3/uL
- ALANINE AMINOTRANSFERASE [2]: 60 u/L
- ALBUMIN [2]: 4.03 G/DL
- ALKALINE PHOSPHATASE [2]: 433.33 u/L
- ASPARTATE AMINOTRANSFERASE [2]: 87 u/L
- BLOOD UREA NITROGEN [2]: 18 mg/dL
- CARBON DIOXIDE [2]: 30.33 mmol/L
- CHLORIDE [2]: 95.67 MEQ/L
- CHOLESTEROL [2]: 67.67 mg/dL
- CREATINE PHOSPHOKINASE [2]: 211.67 u/L
- CREATININE [2]: 0.15 mg/dL
- GLUCOSE [2]: 165.67 mg/dL
- LACTATE DEHYDROGENASE [2]: 122 u/L
- LIPASE [2]: 9 u/L
- PHOSPHORUS [2]: 12.87 mg/dL
- POTASSIUM [2]: 6.96 MEQ/L
- SODIUM [2]: 141.63 MEQ/L
- TOTAL BILIRUBIN [2]: 0.23 mg/dL
- TOTAL PROTEIN [2]: 5.77 G/DL
- URIC ACID [2]: 1.4 mg/dL
- ABSOLUTE BASOPHIL [3]: 0 CELLS/uL
- ABSOLUTE EOSINOPHIL [3]: 0 CELLS/uL
- ABSOLUTE LYMPHOCYTE [3]: 16336 CELLS/uL
- ABSOLUTE MONOCYTE [3]: 67.33 CELLS/uL
- ABSOLUTE SEGMENTED NEUTROPHIL [3]: 1396.67 CELLS/uL
- BASOPHIL [3]: 0%
- EOSINOPHIL [3]: 0%
- ERYTHROCYTE COUNT [3]: 5.64 x10E6/uL
- HEMATOCRIT [3]: 35.9%
- HEMOGLOBIN [3]: 14.27 G/DL
- LEUKOCYTE COUNT [3]: 17.8 x10E3/uL
- LYMPHOCYTE [3]: 92%
- MEAN CORPUSCULAR HEMOGLOBIN [3]: 25.3 pg
- MEAN CORPUSCULAR HEMOGLOBIN CONCENTRATION [3]: 39.77 G/DL
- MEAN CORPUSCULAR VOLUME [3]: 63.6 fL
- MONOCYTE [3]: 0.33%
- NEUTROPHIL [3]: 7.67%
- NUCLEATED RED BLOOD CELLS [3]: 0 /100WBC
- PLATELET COUNT [3]: 1293.33 x10E3/uL
- ALANINE AMINOTRANSFERASE [3]: 45.33 u/L
- ALBUMIN [3]: 4.33 G/DL
- ALKALINE PHOSPHATASE [3]: 338.33 u/L
- ASPARTATE AMINOTRANSFERASE [3]: 85 u/L
- BLOOD UREA NITROGEN [3]: 15.67 mg/dL
- CARBON DIOXIDE [3]: 30 mmol/L
- CHLORIDE [3]: 100.67 MEQ/L
- CHOLESTEROL [3]: 76 mg/dL
- CREATINE PHOSPHOKINASE [3]: 311.33 u/L
- CREATININE [3]: 0.22 mg/dL
- GLUCOSE [3]: 154.33 mg/dL
- LACTATE DEHYDROGENASE [3]: 98 u/L
- LIPASE [3]: 9 u/L
- PHOSPHORUS [3]: 11.73 mg/dL
- POTASSIUM [3]: 6.62 MEQ/L
- SODIUM [3]: 145.9 MEQ/L
- TOTAL BILIRUBIN [3]: 0.27 mg/dL
- TOTAL PROTEIN [3]: 6.1 G/DL
- URIC ACID [3]: 1.9 mg/dL
